# Tested on: Git1 hetero type (+/−) mice
# Test: Open field test in Git1 hetero type (+/−) ADHD model mice treated with SNAP5114
# Format: in vivo
# Conditions: SNAP5114 I.P. 50 ug/kg for 7 days prior to the experiment, movement measured for 10 minutes
# Method: Git1 gene-deficient hetero (+/−) mice were prepared as an animal model with attention deficit/hyperactivity disorder (ADHD). Wild-type mice and GIT1 gene-deficient knock-out type (KO type) mice were crossed to obtain GIT1 gene-deficient hetero type. After making mating cages for among the obtained hetero type mice, genotyping was performed to isolate the hetero type mice. SNAP5114 was administered intraperitoneally (I.P.) at a concentration of 50 ug/kg for 7 days prior to the experiment. SNAP5114 was dissolved in 10% DMSO and then used by dissolving in 90% saline just before the experiment. Open field tests were performed to evaluate behavioral morphology and, in order to determine the characteristics of tonic GABA in the striatum, a representative brain region that controls hyperactivity, immunohistochemistry and electrophysiological measurements (patch clamp recording) were performed. Considering that changes in the amount of GABA associated with astrocytes in ADHD model mice are related to the transport protein that transports GABA into the astrocytes, behavioral experiments were conducted by treating the SNAP5114, an inhibitor of GABA transporter-3 (GAT-3). […] The mice were placed in the center of an open field test cage (30×30×30 cm), and its movement was measured for 10 minutes. The measured videos were analyzed for locomotor activity through ANYmaze.
smiles,measurement,value
"COc1ccc(C(OCCN2CCC[C@H](C(=O)O)C2)(c2ccc(OC)cc2)c2ccc(OC)cc2)cc1 [SNAP5114, (S)-1-(2-(tris(4-methoxyphenyl)methoxy)ethyl)piperidine-3-carboxylic acid]","hyperactivity (distance of movement, locomotor activity) in open field test",hyperactivity was found to be ameliorated to the level of WT
